Reference: patent publication US20220259235A1, “EGFR Inhibitor, Composition, and Preparation Method Therefor” (BETTA PHARMACEUTICALS CO., LTD, priority 2019, published 2022)

How the values were obtained:
EGFR Δ19del/T790M/C797S = EGFR Δ19del/T790M/C797S (Homo sapiens, UniProt P00533, T790M/C797S, form not given); assay: EGFR Δ19del/T790M/C797S kinase test (mobility shift, Caliper EZ Reader); assay type: biochemical; conditions: kinase enzymatic activity
Description: Mobility variation analysis was performed to determine the affinity of the compound for EGFRΔ19del/T790M/C797S. The enzymatic reaction scheme is as follows:
1. Prepare 1* kinase buffer as follows:
2. Preparation of compound concentration gradient: The test compound was tested with an initial concentration of 3000 nM or 100 nM, diluted in a 384 source plate to a 100% DMSO solution with 100-fold final concentration, and the compound is 3-fold diluted with Precision to 10 concentrations. A dispenser Echo 550 was used to transfer 250 nL 100-fold final concentration of the compound to the target plate OptiPlate-384F.
3. Prepare 2.5-fold final concentration of kinase solution with 1×Kinase buffer;
4. Add 10 μL of 2.5-fold final concentration of kinase solution to the compound well and the positive control well; add 10 μL of 1×Kinase buffer to the negative control well.
5. Centrifuge at 1000 rpm for 30 seconds, shake the reaction plate for well mixation, and then incubate at room temperature for 10 minutes.
6. Prepare a mixture of ATP and Kinase substrate at 5/3-fold final concentration with 1×Kinase buffer.
7. Add 15 μL mixture of 5/3-fold final concentration of ATP and substrate to start reaction.
8. Centrifuge the 384-well plate at 1000 rpm for 30 seconds, shake it well and then incubate it at room temperature for corresponding time.
9. Add 30 μL of stop detection solution to stop the kinase reaction, centrifuge at 1000 rpm for 30 seconds, shake it well.
10. Read conversion rate with Caliper EZ Reader.
% Inhibition=((Conversion%_max−Conversion%_sample)/(Conversion%_max−Conversion%_min))*100
Wherein: Conversion%_sample is the sample conversion rate reading; Conversion%_min: Mean value of negative control wells, representing the conversion rate reading of wells without enzymatic activity; Conversion%_max: Mean value of positive control wells, representing the conversion rate reading of wells without compound inhibition.
The dose-effect curve was fitted with concentration log value as X-axis and percentage inhibition rate as Y-axis. Log (inhibitor) vs. Response—Variable Slope of GraphPad Prism 5 was used to fit the dose-effect curve to obtain IC50 value of enzymatic activity for each compound.
The calculation formula is as Y=Bottom (Top−Bottom)/(1+10^((LogIC50−X)*HillSlope)).
As illustrated in examples, IC50 value is within the following range for the compound of the present invention: “A” represents “IC50≤1nM”; “B” represents “1 nM<IC50≤100nM”.

Ba/F3-L858R/T790M/C797S = Ba/F3-L858R/T790M/C797S (Homo sapiens, UniProt P00533, T790M/C797S/L858R, cells depend on it); assay: Ba/F3-L858R/T790M/C797S cell proliferation assay (CellTiter Glo, 72 h); assay type: cell-based; conditions: CTG, numeric values, read-out: BaF3 L858R/T790M/C797S IC50
Description: (§1) Cell line: Ba/F3 cells with stable overexpression of Δ19del/T790M/C797S or L858R/T790M/C797S mutant genes, named Ba/F3-Δ19del/T790M/C797S and Ba/F3-L858R/T790M/C797S, and A431 EGFR wild-type cell line.
(§2) RPMI 1640 and 10% FBS and 1% PS; _EM, 10% PBS and 1% PS
(§3) a) Dilute the test compound (20 mM stock solution) to 10 mM with 100% DMSO as the starting concentration, and then serially dilute 3 times with a “9+0” concentration in 96-well dilution plate (Cat #P-05525, Labcyte);
(§4) b) Dilute compound solution thereof to 1:100 in medium to prepare 10-fold working solution;
(§5) a) Centrifuge the growth cells in logarithmic phase at 1000 rpm for 5 minutes, resuspend the cells in culture medium, and then count the cells;
(§6) b) Inoculate the cells into a 96-well cell culture plate with a density of 2000 cells/well;
(§7) a) The compound prepared in Step 2 was added to a cell plate with 15 μL per well at final concentrations of 1000, 333, 111.1, 37, 12.3, 4.1, 1.4, 0.5, 0.2, and 0 nM. The final concentration of DMSO was 0.1%. The blank control well is with medium (0.1% DMSO).
(§8) b) Incubate cells in an incubatorother 72 hours;
(§9) a) Take out the 96-well cell culture plate and add 50 μl CTG reagent (CellTiter Glo kit, promega, Cat #G7573);
(§10) b) Shake the plate for 2 minutes and let cool at room temperature for 10 minutes,
(§11) c) Read luminous signal value with Perkin Elmer reader.
(§12) Analysis of Experimental Data
(§13) The data were analyzed by GraphPad Prism 6.0 software to obtain the fitting curve of compound activity.
(§14) Fining compound IC50 from nonlinear regression equation:
(§15) Y=Min+(Max−Min)/(1+10^((LogIC50−X)*slope));
(§16) X: Logarithm of compound concentration; Y: luminous signal
(§17) As illustrated in examples, IC50 value is within the following range for the compound of the present invention: “A” represents “IC50≤50 nM”; “B” represents “50 nM<IC50<100 nM”.

Ba/F3-Δ19del/T790M/C797S = Ba/F3-Δ19del/T790M/C797S (Homo sapiens, UniProt P00533, T790M/C797S, cells depend on it, form not given); assay: Ba/F3-Δ19del/T790M/C797S cell proliferation assay (CellTiter Glo, 72 h); assay type: cell-based; conditions: CTG, numeric values, read-out: BaF3 Δ19del/T790M/C797S IC50
Description: as §1, §2, §3, §4, §5, §6, §7, §8, §9, §10, §11, §12, §13, §14, §15, §16, §17

[1] = tested on: A431 EGFR wild-type cell line; assay: A431 EGFR wild-type cell proliferation assay (CellTiter Glo, 72 h); assay type: cell-based; conditions: Homo sapiens, A-431, CTG, read-out: A431 EGFR WT IC50
Description: as §1, §2, §3, §4, §5, §6, §7, §8, §9, §10, §11, §12, §13, §14, §15, §16, §17

Chain of Ba/F3-Δ19del/T790M/C797S (P00533 with tags, fused parts or gaps DEL746-750/T790M/C797S, form open): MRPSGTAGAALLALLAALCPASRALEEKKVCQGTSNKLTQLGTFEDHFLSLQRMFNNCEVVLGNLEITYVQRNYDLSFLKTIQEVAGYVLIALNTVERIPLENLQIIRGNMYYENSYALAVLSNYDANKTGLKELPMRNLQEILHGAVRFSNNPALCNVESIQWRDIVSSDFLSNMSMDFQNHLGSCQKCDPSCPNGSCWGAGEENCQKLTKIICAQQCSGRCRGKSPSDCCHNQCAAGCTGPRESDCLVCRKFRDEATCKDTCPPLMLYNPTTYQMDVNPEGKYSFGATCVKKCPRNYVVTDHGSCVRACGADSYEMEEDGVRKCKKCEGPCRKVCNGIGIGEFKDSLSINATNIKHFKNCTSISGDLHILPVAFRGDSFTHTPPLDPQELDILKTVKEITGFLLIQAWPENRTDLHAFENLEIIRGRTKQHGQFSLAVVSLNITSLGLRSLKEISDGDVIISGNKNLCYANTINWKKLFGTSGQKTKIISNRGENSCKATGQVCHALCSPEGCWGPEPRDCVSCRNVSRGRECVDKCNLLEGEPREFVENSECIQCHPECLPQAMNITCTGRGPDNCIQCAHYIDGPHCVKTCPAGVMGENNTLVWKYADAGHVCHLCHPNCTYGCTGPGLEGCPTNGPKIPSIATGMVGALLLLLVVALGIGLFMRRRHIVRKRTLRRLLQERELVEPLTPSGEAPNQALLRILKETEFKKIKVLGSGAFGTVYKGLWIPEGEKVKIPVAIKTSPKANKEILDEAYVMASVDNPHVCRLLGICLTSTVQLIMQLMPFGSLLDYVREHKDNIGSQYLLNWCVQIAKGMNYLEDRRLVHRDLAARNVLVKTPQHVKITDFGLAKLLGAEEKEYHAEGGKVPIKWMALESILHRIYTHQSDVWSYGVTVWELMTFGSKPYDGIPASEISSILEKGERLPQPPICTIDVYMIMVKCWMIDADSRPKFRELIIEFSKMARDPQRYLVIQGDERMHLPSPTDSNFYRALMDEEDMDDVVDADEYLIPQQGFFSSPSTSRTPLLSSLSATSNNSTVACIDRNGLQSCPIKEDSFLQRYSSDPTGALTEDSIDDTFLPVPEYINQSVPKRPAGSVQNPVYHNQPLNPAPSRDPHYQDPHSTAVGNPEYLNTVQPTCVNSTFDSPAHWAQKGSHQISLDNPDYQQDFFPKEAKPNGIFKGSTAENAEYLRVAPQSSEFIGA
Chain of EGFR Δ19del/T790M/C797S (P00533 with tags, fused parts or gaps DEL746-750/T790M/C797S, form open): as above
Chain of Ba/F3-L858R/T790M/C797S (P00533 whole entry T790M/C797S/L858R): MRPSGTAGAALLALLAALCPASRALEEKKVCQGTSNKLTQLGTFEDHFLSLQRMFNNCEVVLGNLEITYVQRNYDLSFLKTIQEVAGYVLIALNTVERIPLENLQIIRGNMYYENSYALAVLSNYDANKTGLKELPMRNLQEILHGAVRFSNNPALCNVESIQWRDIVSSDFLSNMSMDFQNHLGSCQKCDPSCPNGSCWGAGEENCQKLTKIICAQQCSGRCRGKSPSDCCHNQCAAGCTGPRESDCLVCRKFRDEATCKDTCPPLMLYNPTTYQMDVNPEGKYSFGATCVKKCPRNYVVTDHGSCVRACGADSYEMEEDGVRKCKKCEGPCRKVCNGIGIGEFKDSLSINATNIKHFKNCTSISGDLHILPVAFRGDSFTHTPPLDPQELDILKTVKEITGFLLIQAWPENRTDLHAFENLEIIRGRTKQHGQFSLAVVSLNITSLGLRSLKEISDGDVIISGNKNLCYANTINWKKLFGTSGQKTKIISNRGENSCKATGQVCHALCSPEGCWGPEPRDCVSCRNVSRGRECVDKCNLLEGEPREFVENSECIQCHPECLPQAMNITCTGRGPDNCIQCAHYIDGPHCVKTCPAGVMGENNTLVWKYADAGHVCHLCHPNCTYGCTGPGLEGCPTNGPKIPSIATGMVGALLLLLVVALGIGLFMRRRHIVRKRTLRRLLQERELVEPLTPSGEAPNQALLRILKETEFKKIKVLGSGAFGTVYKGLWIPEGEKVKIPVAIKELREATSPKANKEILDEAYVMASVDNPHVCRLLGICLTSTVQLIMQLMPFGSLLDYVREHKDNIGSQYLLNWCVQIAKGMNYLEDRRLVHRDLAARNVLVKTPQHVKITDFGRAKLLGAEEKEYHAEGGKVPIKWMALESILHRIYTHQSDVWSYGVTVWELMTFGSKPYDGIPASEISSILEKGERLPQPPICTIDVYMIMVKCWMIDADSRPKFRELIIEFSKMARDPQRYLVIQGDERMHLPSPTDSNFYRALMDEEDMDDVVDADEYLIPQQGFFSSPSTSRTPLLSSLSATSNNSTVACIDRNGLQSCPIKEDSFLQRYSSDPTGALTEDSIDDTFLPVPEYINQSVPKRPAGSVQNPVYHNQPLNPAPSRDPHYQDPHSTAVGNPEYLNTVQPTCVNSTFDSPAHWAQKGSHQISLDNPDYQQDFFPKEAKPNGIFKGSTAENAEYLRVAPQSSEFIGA

| Structure (SMILES) | IC50 (EGFR Δ19del/T790M/C797S; numeric values) | GI50 (Ba/F3-L858R/T790M/C797S) | GI50 (Ba/F3-Δ19del/T790M/C797S) | IC50 [1] | IC50 (EGFR Δ19del/T790M/C797S; class symbols) |
| --- | --- | --- | --- | --- | --- |
| COc1cc(N2CCN3CCCCC3C2)c(-c2cnn(C)c2)cc1Nc1ncc(Cl)c(Nc2ccc3nccnc3c2P(C)(C)=O)n1 (stereo in doubt) [Compound 18] | 0.2 nM | 8.2 nM | 6.7 nM | 112 nM | – |
| COc1cc(N2CCOCC2)c(-c2cnn(C)c2)cc1Nc1ncc(Cl)c(Nc2ccc3nccnc3c2P(C)(C)=O)n1 [Compound 9] | 0.3 nM | 16.8 nM | 8 nM | 252 nM | – |
| COc1cc(N2CCC(N3CCN(C)CC3)CC2)c(-c2cnn(C(F)F)c2)cc1Nc1ncc(Br)c(Nc2ccc3nccnc3c2P(C)(C)=O)n1 [Compound 17] | 0.3 nM | 3.8 nM | 3.5 nM | 120 nM | – |
| CCn1cc(-c2cc(Nc3ncc(Br)c(Nc4ccc5nccnc5c4P(C)(C)=O)n3)c(OC)cc2N2CCC(N3CCN(C)CC3)CC2)cn1 [Compound 19] | 0.3 nM | 1.3 nM | 1 nM | 135 nM | – |
| CCn1cc(-c2cc(Nc3ncc(Br)c(Nc4ccc(C)c(C)c4P(C)(C)=O)n3)c(OC)cc2N2CCC(N3CCCCC3)CC2)cn1 [Compound 20] | 0.2 nM | 0.4 nM | 0.7 nM | 152 nM | – |
| COc1cc(N2CCN(C3CCCC3)CC2)c(-c2cnn(C)c2)cc1Nc1ncc(Br)c(Nc2ccc3nc(C4CC4)ccc3c2P(C)(C)=O)n1 [Compound 27, (6-((5-Bromo-2-((4-(4-cyclopentylpiperazine-1-yl)-2-methoxy-5-(1-methyl-1H-pyrazole-4-Yl)phenyl)amino)pyrimidin-4-yl)amino)-2-cyclopropylquinolin-5-yl)dimethylphosphine oxide] | 1.3 nM | 8.7 nM | – | 1170 nM | – |

Now from value to compound:

| IC50 (EGFR Δ19del/T790M/C797S; numeric values) | GI50 (Ba/F3-L858R/T790M/C797S) | GI50 (Ba/F3-Δ19del/T790M/C797S) | IC50 [1] | IC50 (EGFR Δ19del/T790M/C797S; class symbols) | Structure (SMILES) |
| --- | --- | --- | --- | --- | --- |
| 0.2 nM | 18.3 nM | 6.5 nM | 110 nM | – | COc1cc(N2CCC(N(C)C)CC2)c(-c2cnn(C)c2)cc1Nc1ncc(Cl)c(Nc2ccc3nccnc3c2P(C)(C)=O)n1 [Compound 2] |
| 0.3 nM | 60.4 nM | 60.4 nM | 571 nM | – | COc1cc(N2CCC(N(C)C)CC2)c(-c2cn[nH]c2)cc1Nc1ncc(Cl)c(Nc2ccc3nccnc3c2P(C)(C)=O)n1 [Compound 3, (6-((5-Chloro-2-((4-(4-(dimethylamino)piperidin-1-yl)-2-methoxy-5-(1H-pyrazol-4-yl)benzene)amino)pyrimidin-4-yl)amino)quinoxalin-5-yl)dimethylphosphine oxide] |
| – | 14.9 nM | 10.2 nM | 192 nM | ≤ 1 nM | COc1cc(N2CCC(N(C)C)CC2)c(-c2cnn(C)c2)cc1Nc1ncc(Cl)c(Nc2ccc(C)c(C)c2P(C)(C)=O)n1 [Compound 4, (6-((5-Chloro-2-((4-(4-(dimethylamino)piperidine-1-yl)-2-methoxy-5-(1-methyl-1H-pyrazole-4-yl)phenyl)amino)pyrimidine-4-yl)amino)-2,3-dimethylphenyl)dimethylphosphine oxide] |
| 0.3 nM | 3.6 nM | 0.7 nM | 465 nM | – | CCn1cc(-c2cc(Nc3ncc(Br)c(Nc4ccc(C)c(C)c4P(C)(C)=O)n3)c(OC)cc2N2CCOCC2)cn1 [Compound 21] |
| 4.2 nM | 31.1 nM | 24.6 nM | 3260 nM | – | CCn1cc(-c2cc(Nc3ncc(Br)c(Nc4ccc(C)c(C)c4P(C)(C)=O)n3)c(OC)cc2N2CCC(N3CCN(C)CC3)CC2)cn1 [Compound 22, (6-((5-Bromo-2-((5-(1-ethyl-1h-pyrazol-4-yl)-2methoxy-4-(4-(4-methylpiperazine-1-yl)piperidin-1-yl)phenyl)amino)pyrimidine-4-yl)amino)-2,3-dimethylphenyl)dimethylphosphine oxide] |
